For data set [1] the following is noted: long-lasting use for diagnostic purposes, i.v. dose up to 80 mg SrCl2; cited from earlier work.
For another data set, the system named is prostate cancer (CaP). The data set can be described thus: Strontium alone or with full dietary support program in prostate cancer patients: hormone/PSA levels and clinical course. The data set is classed as in vivo, human. As for the experimental part: In addition to the dietary biomodulating components prescribed (see Table 1), the patient ingested a daily amount of 7 mg of strontium oxide, contained in birch ash that they prepared at home and was taking continuously at a dose of about 8 g per day.
• 1. Oral administration of each (2-5 g/day) of respective L-amino acids: Arg, Asp, Glu, Gly, Lys and Ser in connection with meals. The amino acids are manufactured by Degussa Ag, Germany. • 2. […] Small physiologic amounts of vitamins: A, B, C, D, E, K, folic acid and lycopene. • 4. To improve lymphopoiesis and the immune defense of patients a diet containing prionfree neurogenic lipids (equivalent to approx. 50 g of brain) was recommended, (purchased and canned by Neurofood Ltd. Finland). • 5. All these dietary ingredients can be mixed together in yoghurt, forming a daily ration, using pre-packed pulvers. • 6. Dose-levels are adjusted based on clinical response as measured, and correlated to the patient's body weight.
The effect of strontium intake on selected physiological reactions was evaluated by administering strontium alone or together with the full dietary support program described in table 1 to four prostate cancer patients, P1-P4, and to one healthy individual.

The nature of data set [2]: Effect of strontium intake on serum hormone levels in healthy individual(s). The data set is classed as in vivo, human. As for the experimental part:
When healthy individuals were given 7 mg strontium chloride per day, the PRL level increased within two weeks 50-80% from a normal base value. […]
The effect of strontium intake on selected physiological reactions was evaluated by administering strontium alone or together with the full dietary support program described in table 1 to four prostate cancer patients, P1-P4, and to one healthy individual. The results are shown in table 4, which also gives the normal values for the measured hormones.

Where [3] appears, read: patients diagnosed with prostate cancer, administration of strontium.
The mark [4] stands for this setting: P0 without Sr for three weeks (after the Sr course).
Setting [5] is: healthy individual P0, after Sr 7 mg, 14 days.
Setting [6] is: healthy individuals, 7 mg strontium chloride per day, two weeks.
Where [7] appears, read: healthy persons, ingestion of strontium (in mg's).
Where [8] appears, read: laboratory pattern, orchiectomized patient P1 (No. 1), 7 mg strontium oxide daily plus dietary biomodulating components.
Setting [9] is: patient P1, year 2003, 7 mg strontium oxide daily (birch ash) plus dietary biomodulating components.

Turning to `[Cl-].[Cl-].[Sr+2]` [strontium chloride], in data set [1], the harmful side effects result is given as “No harmful therapeutic side effects”. Moreover, in the data set on prostate cancer (CaP) (setting [3]), the DHEAS level result is on record as “decrease”, the FSH level result was “increases” and the PSA level entry is “decrease”. In the data set with prostate cancer (CaP) (prostate cancer patient P2), this compound registered a DHEAS of less than 0.8 µmol/L, a PRL of 852 mU/L and a PSA of 12.6 µg/L. Moreover, in the data set on prostate cancer (CaP) (prostate cancer patient P3 ±), the DHEAS worked out at 2.5 µmol/L, the FSH was determined as 12 IU/L, the PRL is 568 mU/L and the PSA was 12.7 µg/L. Moreover, the “serum DHEA” value with prostate cancer (CaP) (prostate cancer patient P3 ±) turned out to be 4.3 nmol/L. In addition, in the data set on prostate cancer (CaP) (prostate cancer patient P4 ±), the DHEAS is less than 0.8 µmol/L, the FSH amounted to 13 IU/L, the PRL is 1879 mU/L and the PSA is 24.0 µg/L. Also, the “serum DHEA” value with prostate cancer (CaP) (prostate cancer patient P4 ±) came to 2.4 nmol/L. In data set [2] (setting [4]), the DHEAS was found to be 2.7 µmol/L, the FSH is recorded as 11 IU/L, the PRL worked out at 337 mU/L and the PSA amounted to 0.4 µg/L. The “serum DHEA” value in data set [2] (setting [4]) was found to be 3.6 nmol/L. In data set [2] (setting [5]), this compound displayed a DHEAS of 2.3 µmol/L, an FSH of 13 IU/L, a PRL of 389 mU/L and a PSA of 0.4 µg/L. Further, in data set [2] (setting [5]), the “serum DHEA” value is 9.8 nmol/L. Moreover, in data set [2] (healthy individuals, 7 mg strontium chloride per day), the FSH level entry was “can increase or remain on a level exceeding normal levels”. Further, in data set [2] (setting [6]), the “serum DHEA level” value is given as “can show an increase in value” and the “serum DHEAS level” value is given as “decreased”. Moreover, the “serum prolactin (PRL) level increase” value in data set [2] (healthy individuals, 7 mg strontium chloride per day, within two weeks, from normal base value) is given as 50-80%. Also, in data set [2] (setting [7]), the PRL increase is reported as more than 50% and the “decrease in DHEAS” value is given as approximately 40%.
Take `[O-2].[Sr+2]` [strontium oxide]: in the data set on prostate cancer (CaP) (setting [8]), the Activin is 330 to 500 pg/mL, the DHEA is less than 2.0 nmol/L, the DHEAS was less than 0.8 µmol/L and the Inhibin was less than 7.8 pg/mL. In addition, in the data set with prostate cancer (CaP) (setting [8]), the PRL is 15-95 mU/L, the PSA is less than 0.1 µg/L, the SHBG fell in the range of 58 to 61 nmol/L and the Testost was found to be 1.0 nmol/L. In addition, in the data set on prostate cancer (CaP) (patient P1, multiple bone-metastases), the “time until bone-metastases disappeared” value is recorded as “four”. The “time until bone-pain subsided” value in the data set on prostate cancer (CaP) (patient P1, multiple bone-metastases, from beginning of treatment) was found to be 6 months. Besides, in the data set on prostate cancer (CaP) (setting [9]), the DHEA value result was “below 2.0”, the FSH level entry is given as “about 48 IU/l” and the “prolactin (PRL) value” was “about 97 mU/l”. Further, the “serum DHEAS level” value in the data set with prostate cancer (CaP) (patient P1, year 2003, 7 mg strontium oxide daily (birch ash) plus dietary biomodulating components, below detectable limit) is less than 0.8. In the data set on prostate cancer (CaP) (patient P1, year 2003, treatment since 1990), the clinical condition result is “excellent clinical condition”.

The values are drawn from US20100074968A1, “AGENT AND METHOD FOR TREATING CANCER COMPRISING STRONTIUM, AMINO ACID(S) AND MINERAL AGENT(S)” (HELSINGFORS INSTITUTION FÖR BIOMMUNTERAPI AB., priority 2003, published 2010).
